Target: T1, human ROCKα/ROCKII mix (Homo sapiens, UniProt O75116)
T1 construct: purchased Upstate Biotechnology 14-451
Assay: ROCK inhibition, fluorescence polarization (FP) assay with ROCK IMAP Kit
Type: biochemical
Experimental: The compounds were tested for inhibition of human ROCKα/ROCKII mix.
The inhibition assays were performed with a fluorescence polarization (FP) assay using the commercially available ROCK IMAP Kit from Molecular Devices (Product ID. No. R8093), essentially in accordance with the protocol supplied by the manufacturer. […] The enzyme mix ROCKα/ROCKII was obtained from Upstate Biotechnology (Product ID No 14-451).
In summary, all compounds were screened in the wells of a 384 well plate for enzymatic inhibition with concentrations varying from 100 μM to 0.3 nM using a stepwise 3 (or 2)-fold dilution.
To perform the assay, 1 μl of a solution of the compound to be tested in DMSO (at each concentration) was added to 2 μl of a solution of the enzyme in 10 mM Tris-HCl, 10 mM MgCl2, 0.1% BSA, 0.05% NaN3, pH 7.2. The final concentration of the enzyme was 2.6 nM.
After incubating for 30 minutes at RT, 2 μl of a mixture of ATP and the protein substrate in 10 mM Tris-HCl, 10 mM MgCl2, 0.1% BSA, 0.05% NaN3, pH 7.2 was added. The final concentration of the ATP was 10 μM and final concentration of protein substrate was 0.2 μM.
After incubating for 60 minutes at RT, 12 μl of the IMAP Binding Solution (mix of the IMAP Binding Buffer A (1×) and the IMAP Binding Reagent (from the ROCK IMAP kit)) was added.
The mixture thus obtained (total volume: 17 μl) was incubated for 60 minutes at RT, upon which the fluorescence polarization was measured using an automated plate reader (Perkin Elmer, Model Envision 2100-0010 HTS) with FP filters: excitation filter FITC FP 480 and emission filters FITC FP P-pol 535 and FITC FP S-pol 535 (Perkin-Elmer). The results were fitted to a curve using the XL-Fit algorithm and IC50 values were calculated for each fitted curve, again using the XL-Fit algorithm.

[1] = Table 2, compounds of Formula V20
[2] = Table 3, compounds of Formula III20

T1 sequence (O75116 whole entry): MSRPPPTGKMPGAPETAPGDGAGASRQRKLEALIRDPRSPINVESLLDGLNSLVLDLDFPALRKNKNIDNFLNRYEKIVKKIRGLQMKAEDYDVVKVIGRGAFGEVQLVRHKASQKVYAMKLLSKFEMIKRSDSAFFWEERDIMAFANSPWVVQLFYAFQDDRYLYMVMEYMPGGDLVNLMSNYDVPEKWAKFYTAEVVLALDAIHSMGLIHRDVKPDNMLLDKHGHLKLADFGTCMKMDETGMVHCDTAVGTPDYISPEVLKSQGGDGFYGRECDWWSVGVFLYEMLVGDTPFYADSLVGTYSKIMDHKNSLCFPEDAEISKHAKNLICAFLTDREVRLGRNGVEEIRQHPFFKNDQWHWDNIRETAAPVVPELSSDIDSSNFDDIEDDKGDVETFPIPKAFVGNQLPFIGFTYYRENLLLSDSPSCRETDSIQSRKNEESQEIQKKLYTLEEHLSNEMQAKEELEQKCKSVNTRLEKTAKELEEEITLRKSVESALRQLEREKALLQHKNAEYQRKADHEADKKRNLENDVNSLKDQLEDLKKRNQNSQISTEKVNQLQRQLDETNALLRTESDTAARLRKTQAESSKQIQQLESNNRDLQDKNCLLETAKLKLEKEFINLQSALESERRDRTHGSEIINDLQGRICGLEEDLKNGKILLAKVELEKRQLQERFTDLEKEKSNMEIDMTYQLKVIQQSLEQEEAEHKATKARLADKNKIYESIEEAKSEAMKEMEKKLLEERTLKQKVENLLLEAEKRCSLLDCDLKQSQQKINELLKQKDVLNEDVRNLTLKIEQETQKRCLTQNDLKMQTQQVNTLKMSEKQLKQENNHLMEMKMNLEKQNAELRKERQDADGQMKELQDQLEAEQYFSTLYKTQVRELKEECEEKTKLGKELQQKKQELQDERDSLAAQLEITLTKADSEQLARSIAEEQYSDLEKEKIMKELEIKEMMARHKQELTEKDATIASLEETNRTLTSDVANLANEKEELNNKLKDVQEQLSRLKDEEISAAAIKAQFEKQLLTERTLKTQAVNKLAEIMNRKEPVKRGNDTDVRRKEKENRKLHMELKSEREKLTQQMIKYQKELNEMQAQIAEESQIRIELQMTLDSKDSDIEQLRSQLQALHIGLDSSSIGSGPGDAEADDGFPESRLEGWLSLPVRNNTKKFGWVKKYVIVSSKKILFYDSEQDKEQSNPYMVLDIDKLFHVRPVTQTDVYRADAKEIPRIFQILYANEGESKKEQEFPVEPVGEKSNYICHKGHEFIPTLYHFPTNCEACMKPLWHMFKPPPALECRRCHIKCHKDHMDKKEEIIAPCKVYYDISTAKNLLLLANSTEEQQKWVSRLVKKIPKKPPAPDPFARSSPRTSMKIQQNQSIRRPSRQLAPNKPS

| IC50 [2] | SMILES | also measured |
| --- | --- | --- |
|  | NC(CNS(=O)(=O)c1ccc(Oc2ccccc2)cc1)c1ccc(C(=O)Nc2ccncc2)cc1 (centres unmarked) [Compound 74, 4-[1-amino-2-(4-phenoxy-benzenesulfonylamino)-ethyl]-N-pyridin-4-yl-benzamide] | IC50 [1]: 0.5 to 5 µM |
|  | NC(CNS(=O)(=O)c1cccc(-c2ccccc2)c1)c1ccc(C(=O)Nc2ccncc2)cc1 (centres unmarked) [Compound 75] | IC50 [1]: 0.5 to 5 µM |
|  | NC(CNS(=O)(=O)c1ccc(-c2ccccc2)cc1)c1ccc(C(=O)Nc2ccncc2)cc1 (centres unmarked) [Compound 76] | IC50 [1]: 0.5 to 5 µM |
|  | NC(CNS(=O)(=O)c1cccc2ccccc12)c1ccc(C(=O)Nc2ccncc2)cc1 (centres unmarked) [Compound 77, 4-[1-amino-2-(naphthalene-1-sulfonylamino)-ethyl]-N-pyridin-4-yl-benzamide] | IC50 [1]: < 0.5 µM |
|  | NC(CNS(=O)(=O)c1cccs1)c1ccc(C(=O)Nc2ccncc2)cc1 (centres unmarked) [Compound 78, 4-[1-amino-2-(thiophene-2-sulfonylamino)-ethyl]-N-pyridin-4-yl-benzamide] | IC50 [1]: < 0.5 µM |
|  | Cc1noc(C)c1S(=O)(=O)NCC(N)c1ccc(C(=O)Nc2ccncc2)cc1 (centres unmarked) [Compound 79, 4-[1-amino-2-(3,5-dimethyl-isoxazole-4-sulfonylamino)-ethyl]-N-pyridin-4-yl-benzamide] | IC50 [1]: < 0.5 µM |
|  | Cc1nn(C)c(Cl)c1S(=O)(=O)NCC(N)c1ccc(C(=O)Nc2ccncc2)cc1 (centres unmarked) [Compound 80, 4-[1-amino-2-(5-chloro-1,3-dimethyl-1H-pyrazole-4-sulfonylamino)-ethyl]-N-pyridin-4-yl-benzamide] | IC50 [1]: 0.5 to 5 µM |
|  | NC(CNS(=O)(=O)c1cccc2nonc12)c1ccc(C(=O)Nc2ccncc2)cc1 (centres unmarked) [Compound 81, 4-[1-amino-2-(benzo[1,2,5]-oxadiazole-4-sulfonylamino)-ethyl]-N-pyridin-4-yl-benzamide] | IC50 [1]: < 0.5 µM |
|  | NC(CNS(=O)(=O)c1cccc2nsnc12)c1ccc(C(=O)Nc2ccncc2)cc1 (centres unmarked) [Compound 82, 4-[1-amino-2-(benzo[1,2,5]-thiadiazole-4-sulfonylamino)-ethyl]-N-pyridin-4-yl-benzamide] | IC50 [1]: < 0.5 µM |
|  | NC(C(=O)N1CCCC1c1cccc(F)c1)c1ccc(C(=O)Nc2ccncc2)cc1 (centres unmarked) [Compound 83, 4-{1-amino-2-[2-(3-fluoro-phenyl)-pyrrolidin-1-yl]-2-oxo-ethyl}-N-pyridin-4-yl-benzamide] | IC50 (Table 1, compounds of Formula IV20): < 0.5 µM |
| < 0.5 µM | NC(CC(=O)N1CCCC1c1ccccc1)c1ccc(C(=O)Nc2ccncc2)cc1 (centres unmarked) [Compound 84, 4-[1-amino-3-oxo-3-(2-phenyl-pyrrolidin-1-yl)-propyl]-N-pyridin-4-yl-benzamide] |  |
| < 0.5 µM | NC(CC(=O)N1CCCC1c1cccc(Cl)c1)c1ccc(C(=O)Nc2ccncc2)cc1 (centres unmarked) [Compound 85, 4-{1-amino-3-[2-(3-chloro-phenyl)-pyrrolidin-1-yl]-3-oxo-propyl}-N-pyridin-4-yl-benzamide] |  |
| < 0.5 µM | NC(CC(=O)N1CCCC1c1ccc(F)cc1)c1ccc(C(=O)Nc2ccncc2)cc1 (centres unmarked) [Compound 86, 4-{1-amino-3-[2-(4-fluoro-phenyl)-pyrrolidin-1-yl]-3-oxo-propyl}-N-pyridin-4-yl-benzamide] |  |
| < 0.5 µM | NC(CC(=O)N1CCCC1c1cccc(F)c1)c1ccc(C(=O)Nc2ccncc2)cc1 (centres unmarked) [Compound 87, 4-{1-amino-3-[2-(3-fluoro-phenyl)-pyrrolidin-1-yl]-3-oxo-propyl}-N-pyridin-4-yl-benzamide] |  |
| < 0.5 µM | NC(CC(=O)N1CCCC1c1cc(F)ccc1F)c1ccc(C(=O)Nc2ccncc2)cc1 (centres unmarked) [Compound 88, 4-{1-amino-3-[2-(2,5-difluoro-phenyl)-pyrrolidin-1-yl]-3-oxo-propyl}-N-pyridin-4-yl-benzamide] |  |
| < 0.5 µM | NC(CC(=O)N1CCCC1c1ccc(F)cc1F)c1ccc(C(=O)Nc2ccncc2)cc1 (centres unmarked) [Compound 89, 4-{1-amino-3-[2-(2,4-difluoro-phenyl)-pyrrolidin-1-yl]-3-oxo-propyl}-N-pyridin-4-yl-benzamide] |  |
| < 0.5 µM | NC(CC(=O)N1CCCC1c1ccc(Cl)cc1)c1ccc(C(=O)Nc2ccncc2)cc1 (centres unmarked) [Compound 90, 4-{1-amino-3-[2-(4-chloro-phenyl)-pyrrolidin-1-yl]-3-oxo-propyl}-N-pyridin-4-yl-benzamide] |  |
| < 0.5 µM | NC(CC(=O)N1CCCC1c1ccc(Cl)c(Cl)c1)c1ccc(C(=O)Nc2ccncc2)cc1 (centres unmarked) [Compound 91, 4-{1-amino-3-[2-(3,4-dichloro-phenyl)-pyrrolidin-1-yl]-3-oxo-propyl}-N-pyridin-4-yl-benzamide] |  |

| IC50 [2] | SMILES | also measured |
| --- | --- | --- |
| < 0.5 µM | NC(CC(=O)N1CCCCC1c1ccccc1)c1ccc(C(=O)Nc2ccncc2)cc1 (centres unmarked) [Compound 92, 4-[1-amino-3-oxo-3-(2-phenyl-piperidin-1-yl)-propyl]-N-pyridin-4-yl-benzamide] |  |
| < 0.5 µM | NC(CC(=O)N1CCCCC1c1cccc2ccccc12)c1ccc(C(=O)Nc2ccncc2)cc1 (centres unmarked) [Compound 93, 4-[1-amino-3-(2-naphthalen-1-yl-piperidin-1-yl)-3-oxo-propyl]-N-pyridin-4-yl-benzamide] |  |
| < 0.5 µM | NC(CC(=O)N1CCCCC1c1ccc(Cl)cc1)c1ccc(C(=O)Nc2ccncc2)cc1 (centres unmarked) [Compound 94, 4-{1-amino-3-[2-(4-chloro-phenyl)-piperidin-1-yl]-3-oxo-propyl}-N-pyridin-4-yl-benzamide] |  |
| < 0.5 µM | NC(CC(=O)N1CCCCC1c1cc(Cl)ccc1Cl)c1ccc(C(=O)Nc2ccncc2)cc1 (centres unmarked) [Compound 95, 4-{1-amino-3-[2-(2,5-dichloro-phenyl)-piperidin-1-yl]-3-oxo-propyl}-N-pyridin-4-yl-benzamide] |  |
| < 0.5 µM | COc1ccc(Cl)cc1C1CCCCN1C(=O)CC(N)c1ccc(C(=O)Nc2ccncc2)cc1 (centres unmarked) [Compound 96, 4-{1-amino-3-[2-(5-chloro-2-methoxy-phenyl)-piperidin-1-yl]-3-oxo-propyl}-N-pyridin-4-yl-benzamide] |  |
| < 0.5 µM | NC(CC(=O)N1CCCCC1c1ccc(F)cc1)c1ccc(C(=O)Nc2ccncc2)cc1 (centres unmarked) [Compound 97, 4-{1-amino-3-[2-(4-fluoro-phenyl)-piperidin-1-yl]-3-oxo-propyl}-N-pyridin-4-yl-benzamide] |  |
| < 0.5 µM | COc1cccc(C2CCCCN2C(=O)CC(N)c2ccc(C(=O)Nc3ccncc3)cc2)c1 (centres unmarked) [Compound 98, 4-{1-amino-3-[2-(3-methoxy-phenyl)-piperidin-1-yl]-3-oxo-propyl}-N-pyridin-4-yl-benzamide] |  |
| < 0.5 µM | NC(CC(=O)N1CCOCC1c1ccccc1)c1ccc(C(=O)Nc2ccncc2)cc1 (centres unmarked) [Compound 99, 4-[1-Amino-3-oxo-3-(3-phenyl-morpholin-4-yl)-propyl]-N-pyridin-4-yl-benzamide] |  |
| < 0.5 µM | NC(CC(=O)N1CCOCC1c1ccc(Cl)cc1)c1ccc(C(=O)Nc2ccncc2)cc1 (centres unmarked) [Compound 100, 4-{1-amino-3-[3-(4-chloro-phenyl)-morpholin-4-yl]-3-oxo-propyl}-N-pyridin-4-yl-benzamide] |  |
| < 0.5 µM | NC(CC(=O)N1CCOCC1c1ccc(F)cc1)c1ccc(C(=O)Nc2ccncc2)cc1 (centres unmarked) [Compound 101, 4-{1-amino-3-[3-(4-fluoro-phenyl)-morpholin-4-yl]-3-oxo-propyl}-N-pyridin-4-yl-benzamide] |  |
| < 0.5 µM | NC(CC(=O)N1CCc2c(Cl)cccc2C1)c1ccc(C(=O)Nc2ccncc2)cc1 (centres unmarked) [Compound 102, 4-[1-amino-3-(5-chloro-3,4-dihydro-1H-isoquinolin-2-yl)-3-oxo-propyl]-N-pyridin-4-yl-benzamide] |  |
| < 0.5 µM | NC(CC(=O)N1CCc2ccc(Cl)cc2C1)c1ccc(C(=O)Nc2ccncc2)cc1 (centres unmarked) [Compound 103, 4[1-amino-3-(7-chloro-3,4-dihydro-1H-isoquinolin-2-yl)-3-oxo-propyl]-N-pyridin-4-yl-benzamide] |  |
| < 0.5 µM | NC(CC(=O)N1CCc2ccc(F)cc2C1)c1ccc(C(=O)Nc2ccncc2)cc1 (centres unmarked) [Compound 104, 4-[1-amino-3-(7-fluoro-3,4-dihydro-1H-isoquinolin-2-yl)-3-oxo-propyl]-N-pyridin-4-yl-benzamide] |  |
| < 0.5 µM | NC(CC(=O)N1Cc2ccccc2C1)c1ccc(C(=O)Nc2ccncc2)cc1 (centres unmarked) [Compound 105, 4-[1-amino-3-(1,3-dihydro-isoindol-2-yl)-3-oxo-propyl]-N-pyridin-4-yl-benzamide] |  |
| < 0.5 µM | NC(CC(=O)N1CCSC1)c1ccc(C(=O)Nc2ccncc2)cc1 (centres unmarked) [Compound 106, 4-(1-amino-3-oxo-3-thiazolidin-3-yl-propyl)-N-pyridin-4-yl-benzamide] |  |
| < 0.5 µM | NC(CC(=O)N1CCCCC1)c1ccc(C(=O)Nc2ccncc2)cc1 (centres unmarked) [Compound 107, 4-(1-amino-3-oxo-3-piperidin-1-yl-propyl)-N-pyridin-4-yl-benzamide] |  |
| < 0.5 µM | CC1CC(C)CN(C(=O)CC(N)c2ccc(C(=O)Nc3ccncc3)cc2)C1 (centres unmarked) [Compound 108, 4-[1-amino-3-(3,5-dimethyl-piperidin-1-yl)-3-oxo-propyl]-N-pyridin-4-yl-benzamide] |  |

Source: patent US20100190788A1, “Amide derivatives as kinase inhitors” (priority 2005, published 2010)
